The term IC50 denotes the concentration needed to halve the response being measured. The viability, T/C is the result in the treated group divided by that in the control group, in per cent.

This assay relates to 598228-144-R-J1-PDC complex spheroid viability. Put plainly: Anticancer human tumor 598228-144-R-J1-PDC patient-derived serous endometrial adenocarcinoma cell line growth inhibition [GQUAD]. Conditions: for viability, T/C: stronger effect = lower value. From the text:
DNA G-quadruplex Stabilizer Agents in Combinations in Complex Spheroids
A high-throughput screen of multi-cell type tumor spheroids was designed to identify active combinations of DNA G-quadruplex stabilizer agents and targeted small molecules. Complex spheroids include a stromal component modeled by human endothelial cells (HUVEC) and fibroblasts modeled by human mesenchymal stem cells (MSCs). The concentration ranges selected for each drug and investigational agent were based upon clinically achievable concentrations if the clinical Cmax of the agent was known.
Compounds. The drugs and investigational agents: pidnarulex (CX-5461; NSC782164), APTO-253 (NSC789042), BRACO-19 (NSC847499), peposertib (NSC802822), ceralasertib (NSC780249), elimusertib (NSC800525), camonsertib (NSC841442), AZD-1390 (NSC803789), olaparib (NSC753686), talazoparib (NSC767125), ART-558 (NSC835418), sotorasib (NSC818433), MRTX-1133 (NSC836407), SN-38 (NSC673596), topotecan (NSC609699), etoposide (NSC141540), doxorubicin (NSC123127), gemcitabine (NSC613327), 5-fluorouracil (NSC19893), paclitaxel (NSC125973), vemurafenib (NSC761431), panobinostat (NSC761190), R-306465 (JNJ-16241199; NSC773264), adavosertib (NSC754352), TP-3654 (NSC805149), carboplatin (NSC241240), KSQ-4279 (NSC840948), and staurosporine (NSC755774) were obtained from the National Cancer Institute (NCI) Developmental Therapeutics Program Chemical Repository (34). The FDA-approved anticancer drug set is available from the NCI Developmental Therapeutics Program. […] The stock solutions were prepared in dimethyl sulfoxide (DMSO, Sigma-Aldrich, St. Louis, MO, cat. D2650) at 800-fold the tested concentration and stored at -70 degrees C prior to their use. All drugs and investigational agents were tested over a range starting from a high concentration at or near the clinical Cmax and decreasing in half-log increments. If the clinical Cmax for an agent had not been determined, the highest concentration tested was 10 microM.
2.3 Cell Culture. All cells were maintained in an incubator at 37 degrees C and 5% CO2 with 95% humidity. The PDC lines were cultured according to standard operating procedures established by the NCI PDMR. All PDCs were thawed and cultured in Matrigel-coated flasks prepared with a working solution of 1X Ham's F-12 nutrient mix, without supplementation (Invitrogen, cat. 11765054), 100 U/mL penicillin-streptomycin (Invitrogen, cat. 15140122), and 2.5% Matrigel (Corning Inc., cat. 354248) for the first three passages. The 857933-349-R-J2-PDC line was cultured in 6C/Colon 1B media, which includes advanced DMEM/F-12 (Thermo Fisher Scientific, cat. 12634028), 10 mM HEPES (Thermo Fisher Scientific, cat. 15630080), 1X GlutaMAX supplement (Thermo Fisher Scientific, cat. 35050061), 0.1 mg/mL primocin (InvivoGen, cat. ant-pm-2), 10% defined fetal bovine serum, heat inactivated (HyClone Laboratories Inc., cat. SH30070.03HI), 50% L-WRN conditioned media (ATCC, cat. CRL-3276), 1.25 mM N-Acetyl-L-cysteine (Sigma-Aldrich, cat. A9165), 10 mM nicotinamide (Sigma-Aldrich, cat. N0636), 1X B-27 supplement (Thermo Fisher Scientific, cat. 17504044), 1X N-2 supplement (Thermo Fisher Scientific, cat. 17502048), 10 microM Y-27632 dihydrochloride (Tocris Bioscience, cat. 1254), and 50 ng/mL human EGF recombinant protein (Thermo Fisher Scientific, cat. PHG0311). The 485176-168-R4-J1-PDC line was cultured in Panc media, which includes all 6C/Colon 1B media components plus 100 ng/mL human FGF-10 (Thermo Fisher Scientific, cat. 100-26), 500 nM SB-431542 (Selleckchem, cat. S1067), and gastrin (Tocris, cat. 3006).
[…]

“And” between values parts separate entries of the source, which are not always exact repeats. Equal values may be shown once. Some results are limits rather than exact numbers.
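Note: spheroids exposed to the agents for one week before reading.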
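Throughout, for viability, T/C: percent of vehicle DMSO control viability so 100% = untreated growth.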

Take `CCc1c2c(nc3ccc(O)cc13)-c1cc3c(c(=O)n1C2)COC(=O)[C@]3(O)CC` + CN(C)c1ccc(Nc2c3ccc(NC(=O)CCN4CCCC4)cc3nc3cc(NC(=O)CCN4CCCC4)ccc23)cc1: the 50% inhibitory concentration (IC50) is 0.00757 µM (curve of first compound, second compound 0.0316 µM); 0.0135 µM (curve of first compound, second compound 0.1 µM); 0.0121 µM (curve of first compound, second compound 0.316 µM); under 0.000999 µM (curve of first compound, second compound 1 µM); 0.015 µM (curve of first compound, second compound 3.16 µM); under 0.000999 µM (curve of first compound, second compound 10 µM). The viability, T/C by setting is: (second compound 0.0316 µM, first compound 0.000999 µM) 68.8%; (second compound 0.0316 µM, first compound 0.00316 µM) 56.2%; (second compound 0.0316 µM, first compound 0.00999 µM) 45.6%; (second compound 0.0316 µM, first compound 0.0316 µM) 39.7%; (second compound 0.0316 µM, first compound 0.0999 µM) 30.5%; (second compound 0.0316 µM, first compound 0.316 µM) 18.8%. The viability, T/C is, setting by setting: (second compound 0.1 µM, first compound 0.000999 µM) 65.3%; (second compound 0.1 µM, first compound 0.00316 µM) 53.1%; (second compound 0.1 µM, first compound 0.00999 µM) 56.1%; (second compound 0.1 µM, first compound 0.0316 µM) 41.2%; (second compound 0.1 µM, first compound 0.0999 µM) 25.3%; (second compound 0.1 µM, first compound 0.316 µM) 15.5%. In addition, the viability, T/C reads like this: (second compound 0.316 µM, first compound 0.000999 µM) 70.2%; (second compound 0.316 µM, first compound 0.00316 µM) 50.4%; (second compound 0.316 µM, first compound 0.00999 µM) 45.7%; (second compound 0.316 µM, first compound 0.0316 µM) 55.3%; (second compound 0.316 µM, first compound 0.0999 µM) 27.7%; (second compound 0.316 µM, first compound 0.316 µM) 16.9%. For the same compound, the viability, T/C was 50.5% (second compound 1 µM, first compound 0.000999 µM); 42% (second compound 1 µM, first compound 0.00316 µM); 49.9% (second compound 1 µM, first compound 0.00999 µM); 49% (second compound 1 µM, first compound 0.0316 µM); 27.7% (second compound 1 µM, first compound 0.0999 µM); 15.9% (second compound 1 µM, first compound 0.316 µM). Moreover, the viability, T/C was 58.6% (second compound 3.16 µM, first compound 0.000999 µM); 57.2% (second compound 3.16 µM, first compound 0.00316 µM); 59.1% (second compound 3.16 µM, first compound 0.00999 µM); 37.4% (second compound 3.16 µM, first compound 0.0316 µM); 26% (second compound 3.16 µM, first compound 0.0999 µM); 16.8% (second compound 3.16 µM, first compound 0.316 µM). Besides, the viability, T/C was 60.6% (second compound 10 µM, first compound 0.000999 µM); 33.6% (second compound 10 µM, first compound 0.00316 µM); 37.7% (second compound 10 µM, first compound 0.00999 µM); 45.6% (second compound 10 µM, first compound 0.0316 µM); 23.5% (second compound 10 µM, first compound 0.0999 µM); 10.5% (second compound 10 µM, first compound 0.316 µM).
With `Cn1ncnc1[C@H]1c2n[nH]c(=O)c3cc(F)cc(c23)N[C@@H]1c1ccc(F)cc1`, the viability, T/C is, setting by setting: (compound 0.000999 µM) 102% and 87.8% and 113%; (compound 0.00316 µM) 108% and 103% and 91.4%; (compound 0.00999 µM) 73.5% and 93.9% and 92.7%; (compound 0.0316 µM) 101% and 75.7% and 85.6%; (compound 0.0999 µM) 90.7% and 71.7% and 88%; (compound 0.316 µM) 73.6% and 88.2% and 69.7%. In addition, the half-inhibitory concentration (IC50) (curve of compound) is over 0.316 µM.
On to `CN(C)c1ccc(Nc2c3ccc(NC(=O)CCN4CCCC4)cc3nc3cc(NC(=O)CCN4CCCC4)ccc23)cc1`, for which the viability, T/C is 102% [middle of 12 runs] (compound 0.0316 µM); 106% [middle of 12 runs] (compound 0.1 µM); 101% [middle of 12 runs] (compound 1 µM); 99.7% [middle of 12 runs] (compound 3.16 µM); 90% [middle of 12 runs] (compound 10 µM). For the same compound, for the setting “compound alone, run of 03/26/2024”, the IC50 was over 10 µM.
As to `CCCS(=O)(=O)Nc1ccc(F)c(C(=O)c2c[nH]c3ncc(-c4ccc(Cl)cc4)cc23)c1F`, the viability, T/C by setting is: (compound 0.0316 µM) 122% and 103% and 107%; (compound 0.1 µM) 93.3% and 86.4% and 114%; (compound 0.316 µM) 104% and 110% and 102%; (compound 1 µM) 106% and 110% and 130%; (compound 3.16 µM) 100% and 90.5% and 112%; (compound 10 µM) 44.2% and 26.5% and 30.6%. Moreover, the IC50 (curve of compound) is 8.88 µM and 6.56 µM and 7.61 µM.
For `COc1cc(C2c3cc4c(cc3C(OC3OC5COC(C)OC5C(O)C3O)C3COC(=O)C23)OCO4)cc(OC)c1O` (centres undefined), the viability, T/C was 89.4% and 97.4% and 93.6% (compound 0.0316 µM); 96.5% and 82.4% and 72.5% (compound 0.1 µM); 74.2% and 76.2% and 74.6% (compound 0.316 µM); 78.1% and 70.3% and 58.1% (compound 1 µM); 64.4% and 59.9% and 78.7% (compound 3.16 µM); 48% and 46% and 36% (compound 10 µM). Also, for the setting “curve of compound”, the IC50 is 9.17 µM and 7.57 µM and 6.25 µM.
